Where a chain is given by its changes, count along the chain named.
Key:
[1] = target: T1, WT ATP8B1 fragment (residues 803 to 880) (Homo sapiens, UniProt O43520, K824A/R832A/R833A/R835A); test: surface plasmon resonance, protein covalently coupled on CM5 chip; type: binding; conditions: PIP2 injected at different concentrations; acyl chains not told
T1 sequence (O43520 803-880 K824A/R832A/R833A/R835A): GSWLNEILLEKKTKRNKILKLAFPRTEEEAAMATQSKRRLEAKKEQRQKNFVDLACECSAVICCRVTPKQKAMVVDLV

[2] = target: T2, human ATP8B1 (full-length, N-terminal GST-tagged) (Homo sapiens, UniProt O43520); test: ATPase activity stimulated by phospholipid; type: biochemical; conditions: activation of ATPase activity; acyl chains not told
T2 sequence (O43520 1-1251): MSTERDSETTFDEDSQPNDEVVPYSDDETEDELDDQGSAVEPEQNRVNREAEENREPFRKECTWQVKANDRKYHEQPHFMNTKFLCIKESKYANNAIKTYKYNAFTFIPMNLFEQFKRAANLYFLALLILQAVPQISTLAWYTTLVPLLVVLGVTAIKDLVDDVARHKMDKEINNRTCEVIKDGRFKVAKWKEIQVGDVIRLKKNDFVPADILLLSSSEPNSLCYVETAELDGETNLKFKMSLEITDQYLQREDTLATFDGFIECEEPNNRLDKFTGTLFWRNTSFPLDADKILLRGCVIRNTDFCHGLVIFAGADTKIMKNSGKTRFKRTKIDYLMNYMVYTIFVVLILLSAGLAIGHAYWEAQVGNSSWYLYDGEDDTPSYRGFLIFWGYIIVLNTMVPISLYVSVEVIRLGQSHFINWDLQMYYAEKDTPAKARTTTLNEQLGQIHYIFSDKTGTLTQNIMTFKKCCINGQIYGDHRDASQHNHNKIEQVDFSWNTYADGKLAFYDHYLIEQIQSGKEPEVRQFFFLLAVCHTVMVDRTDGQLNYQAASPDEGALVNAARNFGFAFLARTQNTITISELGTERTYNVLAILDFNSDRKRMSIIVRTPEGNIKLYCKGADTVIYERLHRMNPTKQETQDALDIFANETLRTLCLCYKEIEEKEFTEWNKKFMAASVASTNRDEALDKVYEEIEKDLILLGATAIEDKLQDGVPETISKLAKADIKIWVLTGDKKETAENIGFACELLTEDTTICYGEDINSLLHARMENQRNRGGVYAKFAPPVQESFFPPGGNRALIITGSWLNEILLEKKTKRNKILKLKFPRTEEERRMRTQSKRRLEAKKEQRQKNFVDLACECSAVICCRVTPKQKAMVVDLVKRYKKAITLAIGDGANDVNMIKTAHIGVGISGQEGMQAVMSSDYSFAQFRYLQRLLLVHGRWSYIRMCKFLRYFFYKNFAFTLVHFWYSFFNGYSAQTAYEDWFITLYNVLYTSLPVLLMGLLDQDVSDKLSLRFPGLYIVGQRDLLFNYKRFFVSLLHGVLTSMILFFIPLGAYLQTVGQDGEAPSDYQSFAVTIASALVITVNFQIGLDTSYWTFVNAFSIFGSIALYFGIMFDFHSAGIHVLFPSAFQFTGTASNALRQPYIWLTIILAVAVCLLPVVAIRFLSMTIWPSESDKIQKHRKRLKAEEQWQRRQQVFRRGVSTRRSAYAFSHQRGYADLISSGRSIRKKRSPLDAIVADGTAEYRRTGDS

[3] = target: T3, WT ATP8B1 fragment (residues 803 to 880) (Homo sapiens, UniProt O43520); test: surface plasmon resonance, protein covalently coupled on CM5 chip; type: binding; conditions: PIP2 injected at different concentrations; acyl chains not told
T3 sequence (O43520 803-880): T1 sequence (O43520 803-880 K824A/R832A/R833A/R835A) with A22K, A30R, A31R, A33R

Kd [1]: ~63.6 µM
EC50 [2]: 232 ± 35.2 µM
Kd [3]: ~11.5 µM
Substance: PIP2

— paper PMC12146700 (Proceedings of the National Academy of Sciences of the …, 2025)
